Test [1] addresses T1, human RARγ LBD (Homo sapiens, UniProt P13631).
T1 sequence (P13631 185-419 limits assumed): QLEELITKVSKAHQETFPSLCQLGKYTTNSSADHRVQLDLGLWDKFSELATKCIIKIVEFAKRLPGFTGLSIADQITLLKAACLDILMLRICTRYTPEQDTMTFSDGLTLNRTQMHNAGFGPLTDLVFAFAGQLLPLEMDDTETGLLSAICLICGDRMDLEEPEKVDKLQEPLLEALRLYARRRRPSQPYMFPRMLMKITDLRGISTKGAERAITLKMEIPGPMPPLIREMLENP
T1 sequence (P19793 227-458 partner limits assumed): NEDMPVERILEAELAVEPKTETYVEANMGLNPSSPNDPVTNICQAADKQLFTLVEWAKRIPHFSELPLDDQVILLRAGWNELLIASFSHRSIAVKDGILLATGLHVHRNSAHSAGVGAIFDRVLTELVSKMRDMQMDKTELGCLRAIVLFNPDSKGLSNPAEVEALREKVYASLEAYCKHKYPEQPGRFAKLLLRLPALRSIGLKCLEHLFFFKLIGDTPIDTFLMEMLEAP
The experiment in a line: RARγ SRC-2 coactivator recruitment assay (agonist mode). The conditions noted are these: maximum stimulation relative to fitted top of TTNPB standard curve. It is filed as biochemical. From the text:
The RARγ SRC-2 Coactivator recruitment assay utilizes the ligand binding domain (LBD) of RARγ with its binding partner RXRα to determine the ability of a compound to enhance the recruitment of the co-activator SRC-2 to the receptor complex. Enhanced recruitment of SRC2 is known to be reflective of an agonist confirmation of the RARγ receptor. The RARγ LBD and SRC2 peptides are covalently linked to AlphaScreen® beads such that enhanced protein-protein interactions can be assessed by energy transfer. Coactivator recruitment assays are performed using AlphaScreen® technology (Perkin Elmer USA) using a 6X-Histidine tagged human RARγ LBD and GST tagged hSRC-2 protein. Unlabelled RXRα LBD is added as a silent heterodimer partner. Nickel chelated donor beads are used to bind RARγ LBD and anti-GST acceptor beads are used to bind SRC-2. Serially diluted test compound is added in concentrations ranging from 10 μM to 500 pM to 20 nM human RARγ receptor, 25 nM RXRα LBD, and 5 nM SRC-2 protein in a buffer containing 25 mM HEPES (pH 7.5), 100 mM NaCl, 0.1% Bovine Serum Albumin (fraction V), and 2 mM DTT containing 16.67 μg/ml of nickel chelated donor beads and 16.67 μg/ml of anti GST acceptor beads in a final volume of 15 μl per well in a white 384 shallow well proxiplate. The RAR agonist, TTNPB, is used as a standard on each plate and is added in concentrations ranging from 100 nM to 5 pM. After incubating for 12 hours at room temperature, read the plate on a Perkin Elmer Envision using standard AlphaScreen® parameters for excitation and fluorescence. Use the data to calculate an EC50 for compounds after fitting the dose-response curves to a 4-parameter logistic fit. Calculate the percent stimulation using the fitted top of the TTNPB standard curve as a comparator.

Test [2] concerns the target T2, RARγ (Homo sapiens, UniProt P13631).
T2 construct: made in house; host or cells: baculovirus expression system
T2 sequence (P13631 1-454): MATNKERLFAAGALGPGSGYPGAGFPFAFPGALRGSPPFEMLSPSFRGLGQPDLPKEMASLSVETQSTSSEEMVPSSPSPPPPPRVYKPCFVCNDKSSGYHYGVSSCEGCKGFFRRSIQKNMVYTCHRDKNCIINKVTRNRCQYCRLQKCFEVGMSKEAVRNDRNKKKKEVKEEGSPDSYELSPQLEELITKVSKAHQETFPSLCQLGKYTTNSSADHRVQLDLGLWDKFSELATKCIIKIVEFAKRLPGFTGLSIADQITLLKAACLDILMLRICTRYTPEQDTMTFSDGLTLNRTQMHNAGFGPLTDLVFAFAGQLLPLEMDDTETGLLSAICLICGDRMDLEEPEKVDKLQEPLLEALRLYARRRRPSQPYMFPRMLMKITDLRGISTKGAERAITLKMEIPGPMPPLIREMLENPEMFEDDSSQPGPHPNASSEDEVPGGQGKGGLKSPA
T2 sequence (P19793 1-462 partner): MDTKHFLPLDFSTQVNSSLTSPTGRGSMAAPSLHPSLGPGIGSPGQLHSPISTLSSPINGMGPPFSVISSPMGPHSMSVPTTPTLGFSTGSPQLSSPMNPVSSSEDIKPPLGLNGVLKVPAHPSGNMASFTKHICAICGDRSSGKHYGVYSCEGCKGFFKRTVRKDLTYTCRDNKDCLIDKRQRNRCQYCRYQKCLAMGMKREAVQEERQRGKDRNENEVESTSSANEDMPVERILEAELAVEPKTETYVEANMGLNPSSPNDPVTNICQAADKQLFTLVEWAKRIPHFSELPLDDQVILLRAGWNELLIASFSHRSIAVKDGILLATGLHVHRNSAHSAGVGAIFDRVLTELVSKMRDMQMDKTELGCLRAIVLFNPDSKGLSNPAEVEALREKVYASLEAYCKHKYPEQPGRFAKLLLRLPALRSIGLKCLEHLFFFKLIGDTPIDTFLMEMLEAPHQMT
The experiment in a line: RARγ binding assay (SPA, 3H-TTNPB competition). The conditions noted are these: RARγ/RXRα heterodimer. The text has this:
Compounds can be evaluated for binding to RARα, β and γ by measuring their ability to competitively bind to the RAR receptors when dimerized with the binding partner RXRα. Competitive binding assays may be carried out by Scintillation Proximity Assay (SPA) technology using the RARα, β or γ heterodimer (with RXRα as a partner with all the RARs) receptors prepared in a baculovirus expression system. Use the biotinylated oligonucleotide: 5′-[…]-3′ for binding of receptor to yttrium silicate streptavidin-coated SPA beads. Per well, preincubate […] with 82.7 μg SPA beads in a binding buffer containing 10 mM HEPES pH 7.8, 80 mM KCl, 0.5 mM MgCl2, 1 mM DTT, 0.5% CHAPS and 16.6 μg bovine serum albumin for 30 min at room temperature. Then spin the mixture at 2,000 rpm for 3 min to pelletize the beads-oligo mix. Remove the supernatant and resuspend the beads-oligo pellet in the same binding buffer as above, but which in addition now also contain 14% glycerol, 5 μg of sheared salmon sperm DNA, 0.5 μg of RARα, 1.0 μg of RARβ, or 0.25 μg of RARγ receptor, respectively. Carry out the binding assays in the presence of ˜11.3 μCi of ^3H 4-[(E)-2-(5,6,7,8-tetrahydro-5,5,8,8-tetramethyl-2-naphthalenyl)-1-propenyl]benzoic acid (TTNPB), and multiple concentrations of test compound ranging from (5 nM to 10 μM). Non-specific binding may be determined in the presence of 1 μM unlabeled TTNPB. Use the data to calculate an IC50 for compounds after fitting the dose-response curves to a 4-parameter logistic fit. Use the Cheng-Prusoff equation to convert IC50 (nM) values for compounds to Ki, and the Kd may be determined by saturation binding.

With `CN1CCN(C(=O)c2ccc(-n3nc(-c4ccc(C(=O)O)cc4)cc3-c3cc(C(C)(C)C)cc(C(C)(C)C)c3)cc2)CC1` [Example 1, 4-[5-(3,5-Di-tert-butylphenyl)-1-[4-(4-methylpiperazine-1-carbonyl)phenyl]pyrazol-3-yl]benzoic Acid], in test [1], the “% Stimulation” value is 0.2%. The affinity in test [2], expressed as Ki, was 1.69 nM.

Consider `CC(C)(C)c1cc(-c2cc(-c3ccc(C(=O)O)cc3)nn2-c2ccc(C(=O)N3CCOCC3)cc2)cc(C(C)(C)C)n1` [Example 8, 4-[5-(2,6-Di-tert-butyl-4-pyridyl)-1-[4-(morpholine-4-carbonyl)phenyl]pyrazol-3-yl]benzoic acid], for which, in test [1], the “% Stimulation” value is on record as 0.6%. In addition, the affinity in test [2], expressed as Ki, was 1.58 nM.

In the case of `CC(C)Sc1cc(-c2cc(-c3ccc(C(=O)O)cc3)nn2-c2ccc(C(=O)N(C)C)cc2)cc(C(C)(C)C)c1` [Example 12, 4-[5-(3-tert-Butyl-5-isopropylsulfanyl-phenyl)-1-[4-(dimethylcarbamoyl)phenyl]pyrazol-3-yl]benzoic Acid], in test [1], the “% Stimulation” value was 8.4%. Also, the inhibitory constant (Ki) (as a rule, a dissociation constant, usually derived from enzyme kinetics or from competition with a known ligand) in test [2] was determined as 3.06 nM.

Take `CC(C)(C)c1cc(-c2cc(-c3ccc(C(=O)O)cc3)nn2-c2ccc(S(C)(=O)=O)cc2)cc(C(C)(C)C)c1` [Example 19, 4-[5-(3,5-Di-tert-butylphenyl)-1-(4-methylsulfonylphenyl)pyrazol-3-yl]benzoic Acid]: the “% Stimulation” value in test [1] is listed as −3%. In test [2], this compound came in with a Ki of 2.76 nM.

Source of the values: US20140275049A1, “SUBSTITUTED PYRAZOLE ANALOGS As RAR ANTAGONISTS” (Eli Lilly and Company, priority 2011, published 2014).
